Test results: PMC9822194, “Chemoselective Synthesis of Mannich Adducts from 1,4-Naphthoquinones and Profile as Autophagic Inducers in Oral Squamous Cell Carcinoma” (Molecules, 2022)
Where two headings read alike, the source gives them in different places.

Columns and labels:
[1] = test system: normal human gingival fibroblasts; assay: MTT cell viability assay, normal fibroblasts; assay type: cell-based; settings: 48 h
Experimental: (§1) Cells and reagents. Human SCC-4, SCC-9 and SCC-25 cells, derived from a human oral tongue SCC were obtained from the ATCC (CRL-1624; CRL-1629 and CRL-1628, respectively) and maintained at 1:1 DMEM/F12 (Dulbecco’s modified Eagle medium and Ham’s F12 medium; Gibco, Thermo Fisher, Waltham, MA, USA) supplemented with 10% (v/v) FBS (fetal bovine serum; Invitrogen, Thermo Fisher, Waltham, MA, USA) and 400 ng/mL hydrocortisone (Sigma-Aldrich Co., St. Louis, MO, USA). Primary normal human gingival fibroblasts were obtained from the ATCC (PCS-201-018), maintained in DMEM supplemented with 10% (v/v) FBS, and used in a maximum of 6 passages. Cells were grown in a humidified environment containing 5% CO2 at 37 °C. […] Carboplatin in water (Fauldcarbo®; Libbs Farmacêutica, São Paulo, SP, Brazil) was used as a standard anticancer compound.
(§2) Cell viability assay (cytotoxicity) and stability assay. To assess cell viability, cells were grown in triplicate in 96-well plates (5 × 10^3 cells/well) until confluence when treated with the different compounds as in Machado et al.. Briefly, DMSO in the same concentrations was used as a 100% cell viability control. After 48 h, cells were incubated with 5 mg/mL MTT reagent (3-(4,5-dimethyl-2-thiazolyl)-2,5-diphenyl-2H-tetrazolium bromide) (Sigma-Aldrich Co., St. Louis, MO, USA) for 3.5 h. Formazan crystals were dissolved in MTT solvent (DMSO/methanol 1:1 v/v) and the absorbance at 560 nm was evaluated using an EPOCH microplate spectrophotometer (BioTek Instruments, Winooski, VT, USA) with background absorbance at 670 nm subtracted. Each of the eighteen compounds was tested at six or seven different concentrations, ranging from 0.3 µM to 200 µM in cancer cell lines (SCC-4, SCC-9 and SCC-25) and 0.4 µM to 300 µM in normal primary human gingival fibroblast.
(§3) Statistical analysis, IC50 calculation. IC50 values for MTT assays were obtained by non-linear regression using the GraphPad Prism 5.0 software (GraphPad, San Diego, CA, USA) from at least three independent experiments. Data are presented as means ± SD. A dose-response (inhibitor) vs response curve using the least squares method was used to determine the IC50, SD and R2 of the data. The selectivity index was calculated as S.I. = IC50 of the compound in normal oral fibroblast cells/IC50 of the same compound for each oral cancer cell line (SCC-4, SCC-9 and SCC-25) and the mean was calculated when indicated.

SCC-9 (OSCC cells) = assay: MTT cell viability assay (cytotoxicity), SCC9; assay type: cell-based, Human; settings: for Selective Index (S.I.): IC50 normal oral fibroblasts/IC50 SCC-9
Experimental: as §1, §2, §3

SCC-4 cells = assay: MTT cell viability assay, SCC4; assay type: cell-based, Human; settings: read-out: SCC4 IC50
Experimental: as §1, §2, §3

SCC9 cells [2] = assay: Clonogenic assay, SCC9; assay type: cell-based, Human; settings: 2 × IC50, 5 days
Experimental: (§4) Clonogenic assay. The SCC9 strain and primary human fibroblasts were grown in duplicates in 24-well plates (5 × 10^4 cells/well) and incubated for 24 h. […] DMSO was used at the same concentrations as a control for 100% of viability. After 5 days of incubation, the culture medium was removed and the cells were fixed with absolute ethanol (500 µL) for 10 min, then stained with crystal 0.05% violet (Sigma Aldrich) in 20% ethanol (500 µL) for 10 min and washed with distilled water. The plates were scanned to quantify the inhibition of the formation of colonies. Then, crystal violet was solubilized in 33% acetic acid and added to the 96-well plate. Finally, the absorbance was read in a spectrophotometer (EPOCH, BioTek Instruments, Winooski, VT, USA) (595 nm).

[3] = test system: OSCC cell lines (SCC 4, SCC-9 and SCC-25); assay: MTT assay, mean over three OSCC cell lines and average selectivity index; assay type: cell-based, Human; settings: for Average S.I.: average selectivity index over SCC-4, SCC-9, SCC-25 vs normal fibroblasts; for IC50: mean of SCC9, SCC25, SCC4, read-out: Oral Tumor Cells Mean IC50
Experimental: as §2, §3

SCC9 cells [4] = assay: Stability test (pre-incubation at 37 °C, then MTT on SCC9); assay type: cell-based, Human; settings: 2 × IC50 pre-incubated 0-48 h at 37 °C, then SCC9 48 h
Experimental: After the desired treatment time was reached, the medium containing the compound was replaced with untreated culture medium and the MTT assay was performed at the end of both experiments.

SCC-25 cells = assay: MTT cell viability assay, SCC25; assay type: cell-based, Human; settings: read-out: SCC25 IC50
Experimental: as §1, §2, §3

[5] = test system: primary human fibroblasts; assay: Clonogenic assay, primary human fibroblasts; assay type: cell-based; settings: 2 × IC50, 5 days, normal fibroblasts
Experimental: as §4

[6] = Homo sapiens, Fibroblast, MTT, Table 1, read-out: Primary Gengival Fibroblast IC50
[7] = Homo sapiens, SCC-9, MTT, 48 h, Table 1, read-out: SCC9—Oral Cancer IC50
[8] = MTT, Table 1, read-out: Primary Gengival Fibroblast IC50
[9] = MTT, 48 h, Table 1, read-out: SCC9—Oral Cancer IC50

Row | Compound | IC50 [1, 6] | IC50 (SCC-9 (OSCC cells); [7]) | Selective Index (S.I.) (SCC-9 (OSCC cells)) | IC50 [1, 8] | IC50 (SCC-9 (OSCC cells); [9]) | other results
1 | COC(=O)OC1=C(C(c2ccccc2)N(Cc2ccccc2)C(=O)OC)C(=O)c2ccccc2C1=O (stereo not shown) [5b, Methylbenzyl((3-((methoxycarbonyl)oxy)-1,4-dioxo-1,4-dihydronaphthalen-2yl)(phenyl)methyl)carbamate] | 55.7 µM | 28.5 µM | 1.95 | – | – | –
2 | COC(=O)OC1=C(C(c2ccc([N+](=O)[O-])cc2)N(Cc2ccccc2)C(=O)OC)C(=O)c2ccccc2C1=O (stereo not shown) [5c, Methylbenzyl((3-((methoxycarbonyl)oxy)-1,4-dioxo-1,4-dihydronaphthalen-2-yl)(4-nitrophenyl)methyl)carbamate] | 38.3 µM | 24.8 µM | 1.54 | – | – | –
3 | COC(=O)OC1=C(C(c2ccc(Br)cc2)N(Cc2ccccc2)C(=O)OC)C(=O)c2ccccc2C1=O (stereo not shown) [5d, Methylbenzyl((4-bromophenyl)(3-((methoxycarbonyl)oxy)-1,4-dioxo-1,4-dihydronaphthalen-2-yl)methyl)carbamate] | 69.1 µM | 38.8 µM | 1.78 | – | – | –
4 | COC(=O)OC1=C(C(c2ccc(F)cc2)N(Cc2ccccc2)C(=O)OC)C(=O)c2ccccc2C1=O (stereo not shown) [5e, Methylbenzyl((4-fluorophenyl)(3-((methoxycarbonyl)oxy)-1,4-dioxo-1,4-dihydronaphthalen-2-yl)methyl)carbamate] | 40.1 µM | 22.1 µM | 1.81 | – | – | –
5 | COC(=O)OC1=C(C(c2ccc(C)cc2)N(Cc2ccccc2)C(=O)OC)C(=O)c2ccccc2C1=O (stereo not shown) [5f, Methylbenzyl((3-((methoxycarbonyl)oxy)-1,4-dioxo-1,4-dihydronaphthalen-2-yl)(p-tolyl)methyl)carbamate] | 45.7 µM | 22.2 µM | 2.05 | – | – | –
6 | COC(=O)OC1=C(C(c2ccc(OC)cc2)N(Cc2ccccc2)C(=O)OC)C(=O)c2ccccc2C1=O (stereo not shown) [5g, Methylbenzyl((3-((methoxycarbonyl)oxy)-1,4-dioxo-1,4-dihydronaphthalen-2-yl)(4-methoxyphenyl)methyl)carbamate] | 35.5 µM | 21 µM | 1.68 | – | – | –
7 | COC(=O)OC1=C(C(c2cccc(Cl)c2)N(Cc2ccccc2)C(=O)OC)C(=O)c2ccccc2C1=O (stereo not shown) [5i, Methylbenzyl((3-chlorophenyl)(3-((methoxycarbonyl)oxy)-1,4-dioxo-1,4-dihydronaphthalen-2-yl)methyl)carbamate] | 42.6 µM | 23.9 µM | 1.77 | – | – | –
8 | COC(=O)N(Cc1ccccc1)C(C1=C(O)C(=O)c2ccccc2C1=O)c1ccc(F)cc1 (stereo not shown) [6e] | 197 µM | 73.2 µM | 2.68 | – | – | –
9 | N.N.O=C([O-])C1(C(=O)[O-])CCC1.[Pt+2] [Carboplatin] | – | – | 0.85 | 193 µM | 223 µM | IC50 (SCC-4 cells; MTT, 48 h): 195 µM; Cytotoxicity in clonogenic assay (colony formation) (SCC9 cells [2]): high cytotoxicity; Average S.I. [3]: 0.85; Average S.I. ([3]; listed as carboplatin): 0.847; IC50 [3]: 228 µM; Stability at 37 °C (retained cytotoxicity) (SCC9 cells [4]): stable even after 48 h; IC50 (SCC-25 cells; MTT, 48 h): 264 µM; Cells viable and able to form colonies [5]: less than 50%
10 | COc1cccc2c1C(=O)c1c(O)c3c(c(O)c1C2=O)C[C@@](O)(C(=O)CO)C[C@@H]3O[C@H]1C[C@H](N)[C@H](O)[C@H](C)O1 [Doxorubicin] | 18.7 µM | 7.2 µM | 2.57 | – | – | IC50 (SCC-4 cells; Homo sapiens, SCC-4, MTT, 48 h): 5.87 µM; IC50 ([3]; Homo sapiens): 4.73 µM; Average S.I. [3]: 3.94; Stability at 37 °C (retained cytotoxicity) (SCC9 cells [4]): stable even after 48 h; IC50 (SCC-25 cells; Homo sapiens, SCC-25, MTT, 48 h): 1.12 µM
11 | CC(C)=CCC1=C(O)C(=O)c2ccccc2C1=O [Lapachol, reference compound] | – | – | 2.41 | – | – | IC50 ([1]; Homo sapiens, Fibroblast, read-out: Primary Gengival Fibroblast IC50): 102 µM; IC50 (SCC-4 cells; Homo sapiens, SCC-4, 48 h): 55.3 µM; IC50 ([3]; Homo sapiens): 61.1 µM; Average S.I. [3]: 1.66; IC50 (SCC-25 cells; Homo sapiens, SCC-25, 48 h): 85.9 µM; IC50 (SCC-9 (OSCC cells); Homo sapiens, SCC-9, 48 h, read-out: SCC9 IC50): 42.1 µM; IC50 (SCC-9 (OSCC cells); Homo sapiens, SCC-9, 48 h, read-out: SCC9—Oral Cancer IC50): 42.1 µM
12 | Methyl benzyl((3-chloro-phenyl)(3-((methoxycarbonyl)oxy)-1,4-dioxo-1,4-dihydronaphthalen-2-yl)methyl)carbamate [6i] | – | – | 1.03 | 73.5 µM | 70.7 µM | –
13 | Methyl benzyl((3-methyl-phenyl)(3-((methoxycarbonyl)oxy)-1,4-dioxo-1,4-dihydronaphthalen-2-yl)methyl)carbamate [6h] | – | – | 4.83 | 53.7 µM | 11.1 µM | IC50 ([1]; MTT, Table 2, read-out: Primary Gingival Fibroblast IC50): 53.7 µM; IC50 (SCC-4 cells; MTT, 48 h): 98.4 µM; Average S.I. [3]: 1.29; IC50 (SCC-25 cells; MTT, 48 h): 56.6 µM
14 | Methyl benzyl((4-chlorophenyl)(3-((methoxycarbonyl)oxy)-1,4-dioxo-1,4-dihydronaphthalen-2-yl)methyl)carbamate [5a] | – | – | 1.61 | 37.5 µM | 23.2 µM | –
15 | Methyl benzyl((4-nitrophenyl)(3-((methoxycarbonyl)oxy)-1,4-dioxo-1,4-dihydronaphthalen-2-yl)methyl)carbamate [6c] | – | – | 2.63 | 148 µM | 56.1 µM | –
16 | Methyl benzyl((phenyl)(3-((methoxycarbonyl)oxy)-1,4-dioxo-1,4-dihydronaphthalen-2-yl)methyl)carbamate [6b] | – | – | 2.79 | 230 µM | 82.2 µM | –
17 | Methylbenzyl((3-((methoxycarbonyl)oxy)-1,4-dioxo-1,4-dihydronaphthalen-2-yl)(m-tolyl) methyl)carbamate [5h] | – | – | 1.97 | 49.1 µM | 24.9 µM | –
